Measurements taken from paper PMC8639922, “KSHV transactivator-derived small peptide traps coactivators to attenuate MYC and inhibits leukemia and lymphoma cell growth” (Communications Biology, 2021).
Square brackets hold non-standard residues; d marks the D form. Peptide text beside a SMILES is read from it. Orn = NCCC[C@H](N)C(=O)O; βAla = NCCC(=O)O

System: BC-1 cells
Assay: MTT assay, deletion and mutant peptides
Type: cell-based, human
Details: BC-1, 64 μM
Excerpt: Fig. 2 Viral and cellular responses to K-Rta peptide; identification of VGN50. a Protein sequence alignment. Homologous protein sequences were searched for with BLAST and extracted from other gamma-herpesviral homologs. The consensus protein sequence is depicted at the bottom of table. b Peptide design. Deletion peptides were designed based on the consensus sequence in a. The TAT protein sequence was used as a cell-penetrating peptide (CPP) and placed downstream from the K-Rta protein sequence. (d-R) D amino acid arginine, (ORN) ornithine, (bAla) beta alanine. c Sub cellular peptide localization. Cy5-labeled peptide 1 was used to track subcellular localization. Nuclei were visualized by DAPI staining. The scale is indicated in the panel. d MTT assays with deletion and mutant peptides. Peptide listed in b were incubated with BC-1 cells and MTT conversion was measured 48 h after incubation. The OD of mock-treated samples were set as 100%, and OD from detergent-treated cells were set as 0%. The amount of each peptide used for incubation is depicted along the x-axis. Mean percentage viability ±SD were calculated for each treatment group (n = 3 samples). Peptide 1 was renamed as VGN50. e Flow cytometry analyses of cell proliferation and apoptosis induction. Cells were incubated with VGN50 or mutant peptide (three alanine substitutions) for 24 h followed by measurements of percentage cell proliferation (Ki67 staining) and apoptosis induction (Annexin V staining). Standard deviation bars are included. (n = 3) Two-way Anova, followed by Sidak’s multiple comparisons test. f The effect of VGN50 on various cancer cell types. MTT assays were performed with the indicated cell lines treated with various VGN50 concentrations. The OD of mock-treated samples were set as 100%, and OD from detergent-treated cells were set as 0%. Mean percentage viability ±SD was calculated for each treatment (n = 3 samples/treatment). g Viability assay with flow cytometry. Cell viability was measured in triplicate with live/dead staining and the cell killing effects on cancer cells was compared with normal peripheral blood mononuclear cells (PBMC) from three healthy donors. Results are presented as mean percentage viability ±SD (n = 3 samples/group). f, g Ordinary one-way Anova, followed by Tukey’s multiple comparisons test. […]
Leukoreduction system chambers (LRS) from healthy donors were purchased from Vitalant. […] Cell death, apoptosis, and proliferation were analyzed by flow cytometry (BD Acuri) after intracellular staining with anti-humanKi67-Alexa488 (Biolegend, 1:100) along with the isotype control antibody, annexin-V-FITC with 7-AAD staining (Biolegend) according to the manufacture’s protocol, Live/dead Fixable Red Dead Cell staining kit (Invitrogen) according to the manufacture’s protocol, or MTT assay. […]

SMILES: CC(C)C[C@H](NC(=O)CCNC(=O)[C@H](CCCNC(=N)N)NC(=O)[C@H](CCCNC(=N)N)NC(=O)[C@H](CCCNC(=N)N)NC(=O)[C@H](CCCN)NC(=O)[C@H](CCCNC(=N)N)NC(=O)[C@H](CCCNC(=N)N)NC(=O)[C@H](CCCCN)NC(=O)[C@H](CCCCN)NC(=O)[C@H](N)CCCNC(=N)N)C(=O)N[C@@H](CO)C(=O)N[C@@H](CO)C(=O)N[C@@H](C)C(=O)N[C@@H](C)C(=O)N[C@@H](C)C(=O)NCC(=O)N[C@@H](CC(C)C)C(=O)N[C@@H](Cc1ccc(O)cc1)C(=O)N[C@@H](CCC(N)=O)C(=O)N[C@@H](CC(C)C)C(=O)N[C@@H](CC(=O)O)C(=O)N[C@H](C(=O)O)[C@@H](C)O [Mt-P] (H-[dR]KKRR[Orn]RRR[βAla]LSSAAAGLYQLDT-OH; N-terminus and C-terminus assumed)
- Reduction of cell viability (MTT) compared to untreated control: 20%
